Measurements from ChEMBL document CHEMBL2074319, “The antiviral nucleotide analogs cidofovir and adefovir are novel substrates for human and rat renal organic anion transporter 1” (Mol Pharmacol, 1999).

How the values were obtained:
[1] = biological target: T1, Solute carrier family 22 member 6 (Homo sapiens, UniProt Q4U2R8); assay: TP_TRANSPORTER: inhibition of PAH uptake (PAH: 50 uM, alpha-KG: 1000 uM) in Xenopus laevis oocytes; format: functional, cell-based; conditions: oocyte
T1 sequence (Q4U2R8 whole entry): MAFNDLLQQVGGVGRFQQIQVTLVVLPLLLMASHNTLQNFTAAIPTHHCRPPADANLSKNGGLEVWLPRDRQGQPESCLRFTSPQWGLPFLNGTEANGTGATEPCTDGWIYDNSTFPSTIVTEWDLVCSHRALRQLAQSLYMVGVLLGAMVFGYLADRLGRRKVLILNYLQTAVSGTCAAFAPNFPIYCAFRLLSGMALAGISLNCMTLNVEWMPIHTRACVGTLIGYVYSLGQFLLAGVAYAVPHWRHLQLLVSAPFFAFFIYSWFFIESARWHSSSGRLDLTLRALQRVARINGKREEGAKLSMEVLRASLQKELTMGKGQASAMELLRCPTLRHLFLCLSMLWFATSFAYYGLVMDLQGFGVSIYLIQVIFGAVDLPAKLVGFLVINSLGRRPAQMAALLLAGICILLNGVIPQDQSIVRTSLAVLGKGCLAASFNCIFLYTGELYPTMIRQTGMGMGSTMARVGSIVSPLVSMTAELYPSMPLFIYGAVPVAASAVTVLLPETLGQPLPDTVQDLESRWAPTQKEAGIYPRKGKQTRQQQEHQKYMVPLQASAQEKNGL

[2] = biological target: T1, Solute carrier family 22 member 6; assay: TP_TRANSPORTER: inhibition of PAH uptake (PAH: 50 uM, 2,4-D: 1000 uM) in Xenopus laevis oocytes; format: functional, cell-based; conditions: oocyte
[3] = biological target: T1, Solute carrier family 22 member 6; assay: (§1) TP_TRANSPORTER: uptake in Xenopus laevis oocytes; format: functional, cell-based; conditions: oocyte
[4] = biological target: T2, Solute carrier family 22 member 6 (Rattus norvegicus, UniProt O35956); assay: as §1; format: functional, cell-based; conditions: oocyte
T2 sequence (O35956 whole entry): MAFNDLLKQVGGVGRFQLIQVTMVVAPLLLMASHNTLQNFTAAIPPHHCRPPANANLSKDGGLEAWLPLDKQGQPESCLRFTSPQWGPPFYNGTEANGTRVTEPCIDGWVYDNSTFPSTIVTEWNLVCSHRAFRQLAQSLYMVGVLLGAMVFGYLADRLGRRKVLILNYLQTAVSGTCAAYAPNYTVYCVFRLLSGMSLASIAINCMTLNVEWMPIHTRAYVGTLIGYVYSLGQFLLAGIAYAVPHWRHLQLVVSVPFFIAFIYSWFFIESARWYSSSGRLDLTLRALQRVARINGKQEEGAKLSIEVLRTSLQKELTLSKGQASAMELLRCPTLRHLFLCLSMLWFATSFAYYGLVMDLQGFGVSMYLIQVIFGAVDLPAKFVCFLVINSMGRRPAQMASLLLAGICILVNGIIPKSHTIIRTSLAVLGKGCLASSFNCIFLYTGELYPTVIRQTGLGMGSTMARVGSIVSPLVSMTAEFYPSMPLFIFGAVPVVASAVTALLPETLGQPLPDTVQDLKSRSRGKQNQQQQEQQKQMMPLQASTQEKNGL

[5] = biological target: T1, Solute carrier family 22 member 6; assay: TP_TRANSPORTER: inhibition of PAH uptake (PAH: 50 uM, BCG: 1000 uM) in Xenopus laevis oocytes; format: functional, cell-based; conditions: oocyte
[6] = substrate: Nc1ccn(C[C@@H](CO)OCP(=O)(O)O)c(=O)n1; assay: as §1; format: functional, cell-based, Oocyte
[7] = substrate: Nc1ncnc2c1ncn2CCOCP(=O)(O)O; assay: as §1; format: functional, cell-based, Oocyte

## O=C(O)CCC(=O)C(=O)O [ALPHA-KETOGLUTARIC ACID]
[1]
  Activity: inhibitor [(at a rough estimate) 5 % of control]

## O=C(O)COc1ccc(Cl)cc1Cl [2,4-DICHLOROPHENOXYACETIC ACID]
[2]
  Activity: inhibitor [(at a rough estimate) <5 % of control]

## Nc1nc2c(ncn2CCOCP(=O)(O)O)c(=O)[nH]1 [GS-438]
[3]
  Activity: substrate [+]
[4]
  Activity: substrate [+]

## Nc1nc(N)c2ccn(CCOCP(=O)(O)O)c2n1
[3]
  Activity: substrate [+]
[4]
  Activity: substrate [+]

## Cc1c(C2(c3cc(Br)c(O)c(Br)c3C)OS(=O)(=O)c3ccccc32)cc(Br)c(O)c1Br [BROMCRESOL GREEN]
[5]
  Activity: inhibitor [(at a rough estimate) <5 % of control]

B1: Solute carrier family 22 member 6 (Rattus norvegicus) (protein)
chain: T2 sequence (O35956 whole entry)
[6]
  Km: 238 µM
[7]
  Km: 270 µM

B2: Solute carrier family 22 member 6 (Homo sapiens) (protein)
chain: T1 sequence (Q4U2R8 whole entry)
[6]
  Km: 46 µM
[7]
  Km: 30 µM
